System: Detoxification protein genes
Test: DNA chip mRNA expression in yeast, detoxification protein genes (Table 8)
Format: cell-based, Saccharomyces cerevisiae S288C
Outline: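 Untreated cultures served as reference for log-phase S288C yeast given a growth-inhibiting, non-lethal toxicant dose for 2 h at 25° C. in YPD. Gene expression was measured on a whole-genome DNA chip from Cy3/Cy5-labeled cDNA.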

Structure (SMILES): [Cl][Pb][Cl] [(4), PbCl2]
- The level of expressed mRNA in the presence of chemical substance/The level of expressed mRNA in the absence of chemical substance (yeast gene YBL064C): 1.7
- The level of expressed mRNA in the presence of chemical substance/The level of expressed mRNA in the absence of chemical substance (yeast gene YBR008C): 0.7
- The level of expressed mRNA in the presence of chemical substance/The level of expressed mRNA in the absence of chemical substance (yeast gene YBR145W): 0.9
- The level of expressed mRNA in the presence of chemical substance/The level of expressed mRNA in the absence of chemical substance (yeast gene YBR244W): 0.9
- The level of expressed mRNA in the presence of chemical substance/The level of expressed mRNA in the absence of chemical substance (yeast gene YBR293W): 1.8
- The level of expressed mRNA in the presence of chemical substance/The level of expressed mRNA in the absence of chemical substance (yeast gene YCL035C): 1.7
- The level of expressed mRNA in the presence of chemical substance/The level of expressed mRNA in the absence of chemical substance (yeast gene YCL069W): 0.8
- The level of expressed mRNA in the presence of chemical substance/The level of expressed mRNA in the absence of chemical substance (yeast gene YCR083W): 1.8
- The level of expressed mRNA in the presence of chemical substance/The level of expressed mRNA in the absence of chemical substance (yeast gene YDL100C): 0.8
- The level of expressed mRNA in the presence of chemical substance/The level of expressed mRNA in the absence of chemical substance (yeast gene YDL168W): 0.9
- The level of expressed mRNA in the presence of chemical substance/The level of expressed mRNA in the absence of chemical substance (yeast gene YDR256C): 1.3
- The level of expressed mRNA in the presence of chemical substance/The level of expressed mRNA in the absence of chemical substance (yeast gene YDR453C): 3.0
- The level of expressed mRNA in the presence of chemical substance/The level of expressed mRNA in the absence of chemical substance (yeast gene YDR513W): 2.6
- The level of expressed mRNA in the presence of chemical substance/The level of expressed mRNA in the absence of chemical substance (yeast gene YDR538W): 1.2
- The level of expressed mRNA in the presence of chemical substance/The level of expressed mRNA in the absence of chemical substance (yeast gene YEL027W): 1.1
- The level of expressed mRNA in the presence of chemical substance/The level of expressed mRNA in the absence of chemical substance (yeast gene YEL065W): 0.4
- The level of expressed mRNA in the presence of chemical substance/The level of expressed mRNA in the absence of chemical substance (yeast gene YER185W): 7.0
- The level of expressed mRNA in the presence of chemical substance/The level of expressed mRNA in the absence of chemical substance (yeast gene YFL050C): 2.2
- The level of expressed mRNA in the presence of chemical substance/The level of expressed mRNA in the absence of chemical substance (yeast gene YGL013C): 0.7
- The level of expressed mRNA in the presence of chemical substance/The level of expressed mRNA in the absence of chemical substance (yeast gene YGL254W): 0.6
- The level of expressed mRNA in the presence of chemical substance/The level of expressed mRNA in the absence of chemical substance (yeast gene YGR088W): 2.4
- The level of expressed mRNA in the presence of chemical substance/The level of expressed mRNA in the absence of chemical substance (yeast gene YGR138C): 1.2
- The level of expressed mRNA in the presence of chemical substance/The level of expressed mRNA in the absence of chemical substance (yeast gene YGR197C): 1.0
- The level of expressed mRNA in the presence of chemical substance/The level of expressed mRNA in the absence of chemical substance (yeast gene YGR209C): 1.5
- The level of expressed mRNA in the presence of chemical substance/The level of expressed mRNA in the absence of chemical substance (yeast gene YGR224W): 1.2
- The level of expressed mRNA in the presence of chemical substance/The level of expressed mRNA in the absence of chemical substance (yeast gene YHL040C): 0.4
- The level of expressed mRNA in the presence of chemical substance/The level of expressed mRNA in the absence of chemical substance (yeast gene YHL047C): 1.0
- The level of expressed mRNA in the presence of chemical substance/The level of expressed mRNA in the absence of chemical substance (yeast gene YHR008C): 1.8
- The level of expressed mRNA in the presence of chemical substance/The level of expressed mRNA in the absence of chemical substance (yeast gene YHR048W): 1.7
- The level of expressed mRNA in the presence of chemical substance/The level of expressed mRNA in the absence of chemical substance (yeast gene YHR053C): 1.1
- The level of expressed mRNA in the presence of chemical substance/The level of expressed mRNA in the absence of chemical substance (yeast gene YHR055C): 1.2
- The level of expressed mRNA in the presence of chemical substance/The level of expressed mRNA in the absence of chemical substance (yeast gene YIR002C): 0.6
- The level of expressed mRNA in the presence of chemical substance/The level of expressed mRNA in the absence of chemical substance (yeast gene YIR038C): 2.0
- The level of expressed mRNA in the presence of chemical substance/The level of expressed mRNA in the absence of chemical substance (yeast gene YJL101C): 1.2
- The level of expressed mRNA in the presence of chemical substance/The level of expressed mRNA in the absence of chemical substance (yeast gene YJR104C): 1.2
- The level of expressed mRNA in the presence of chemical substance/The level of expressed mRNA in the absence of chemical substance (yeast gene YKL026C): 4.9
- The level of expressed mRNA in the presence of chemical substance/The level of expressed mRNA in the absence of chemical substance (yeast gene YKL064W): 0.8
- The level of expressed mRNA in the presence of chemical substance/The level of expressed mRNA in the absence of chemical substance (yeast gene YKR066C): 0.7
- The level of expressed mRNA in the presence of chemical substance/The level of expressed mRNA in the absence of chemical substance (yeast gene YKR105C): 1.5
- The level of expressed mRNA in the presence of chemical substance/The level of expressed mRNA in the absence of chemical substance (yeast gene YKR106W): 1.4
- The level of expressed mRNA in the presence of chemical substance/The level of expressed mRNA in the absence of chemical substance (yeast gene YLL028W): 0.5
- The level of expressed mRNA in the presence of chemical substance/The level of expressed mRNA in the absence of chemical substance (yeast gene YLL057C): 0.9
- The level of expressed mRNA in the presence of chemical substance/The level of expressed mRNA in the absence of chemical substance (yeast gene YLL060C): 2.6
- The level of expressed mRNA in the presence of chemical substance/The level of expressed mRNA in the absence of chemical substance (yeast gene YLR043C): 1.8
- The level of expressed mRNA in the presence of chemical substance/The level of expressed mRNA in the absence of chemical substance (yeast gene YLR046C): 0.8
- The level of expressed mRNA in the presence of chemical substance/The level of expressed mRNA in the absence of chemical substance (yeast gene YML028W): 1.3
- The level of expressed mRNA in the presence of chemical substance/The level of expressed mRNA in the absence of chemical substance (yeast gene YML116W): 1.4
- The level of expressed mRNA in the presence of chemical substance/The level of expressed mRNA in the absence of chemical substance (yeast gene YMR015C): 0.9
- The level of expressed mRNA in the presence of chemical substance/The level of expressed mRNA in the absence of chemical substance (yeast gene YMR038C): 0.8
- The level of expressed mRNA in the presence of chemical substance/The level of expressed mRNA in the absence of chemical substance (yeast gene YNL239W): 1.2
- The level of expressed mRNA in the presence of chemical substance/The level of expressed mRNA in the absence of chemical substance (yeast gene YNL241C): 1.0
- The level of expressed mRNA in the presence of chemical substance/The level of expressed mRNA in the absence of chemical substance (yeast gene YNL259C): 1.2
- The level of expressed mRNA in the presence of chemical substance/The level of expressed mRNA in the absence of chemical substance (yeast gene YOL158C): 0.9
- The level of expressed mRNA in the presence of chemical substance/The level of expressed mRNA in the absence of chemical substance (yeast gene YOR031W): 3.4
- The level of expressed mRNA in the presence of chemical substance/The level of expressed mRNA in the absence of chemical substance (yeast gene YOR153W): 1.1
- The level of expressed mRNA in the presence of chemical substance/The level of expressed mRNA in the absence of chemical substance (yeast gene YOR247W): 1.4

From patent publication US8192962B2, “Processes for detecting toxic substances” (Daikin Industries, Ltd., priority 2001, dated 2012)
